Source: paper PMC10403574, “Discovery of a pyrrole-pyridinimidazole derivative as novel SIRT6 inhibitor for sensitizing pancreatic cancer to gemcitabine” (Cell Death & Disease, 2023)
pIC50: −log10 of the molar value.

Key:
SIRT6 [1] = target: T1, SIRT6 (Homo sapiens, UniProt Q8N6T7); test: Fluor-De-Lys (FDL) SIRT6 deacetylation assay; format: biochemical; set-up: The human full-length SIRT6 gene was inserted into the prokaryotic expression vector (pET-28a (+)); inferred from the pET-28a(+) vector, Ni-NTA purification and Ni-NTA biosensor loading); made in house; host or cells: Escherichia coli BL21 (DE3); conditions: fixed concentration of 25 μM, RHKK-Ac-AMC, NI = no inhibition; for inhibition at 25 µM: read-out: Inhibition rate (%)
T1 sequence (Q8N6T7 whole entry): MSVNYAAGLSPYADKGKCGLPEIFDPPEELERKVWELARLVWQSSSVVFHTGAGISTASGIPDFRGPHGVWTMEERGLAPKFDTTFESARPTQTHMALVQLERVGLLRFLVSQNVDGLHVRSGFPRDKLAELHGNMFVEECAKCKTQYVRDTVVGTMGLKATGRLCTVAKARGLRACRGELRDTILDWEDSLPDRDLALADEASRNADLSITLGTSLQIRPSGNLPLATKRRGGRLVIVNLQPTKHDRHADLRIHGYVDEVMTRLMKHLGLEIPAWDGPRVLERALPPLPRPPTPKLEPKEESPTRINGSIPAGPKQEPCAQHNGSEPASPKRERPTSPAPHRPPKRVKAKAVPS
Method: The human full-length SIRT6 gene was inserted into the prokaryotic expression vector (pET-28a (+)). The verified recombinant plasmid was transformed into Escherichia coli BL21 (DE3) expression strain and cultured overnight at 37 °C on LB plates supplemented with 50 μg/mL kanamycin. Single colonies were inoculated in fluid kanamycin-containing LB mediums. It was shaken at 160 rpm for 16 h at 37 °C and transferred to kanamycin-containing LB medium at a ratio of 1:100. It was shaken at 160 rpm at 37 °C until the OD600 reached 0.6. The Isopropyl-β-d-thiogalactopyranoside was added to make the final concentration of solution 0.5 mmol/L, cultured for 15 °C and 160 rpm for 24 h.
Bacterial liquid was harvested at 12,000 rpm at 4 °C for 20 min, and then re-suspended in Lysis buffer (20 mmol/L Hepes pH 7.5, 20 mmol/L imidazole, 5% Glycerol, 500 mmol/L NaCl). Cell pellets were disrupted by high-pressure crusher (JNBIO, Guangzhou China) and centrifuged (4 °C, 12000 rpm, for 20 min). Supernatant was collected and purified by FPLC with a 1 mL Ni–NTA Sepharose column (GE Healthcare, Stamford, USA). The SIRT6 protein was eluted at containing 50 mM, 100 mM, 150 mM, 200 mM, and 500 mM imidazole in elution buffer. The purified SIRT6 protein was dialyzed in dialysis buffer (50 mM Tris-HCl, 137 mM NaCl, 2.7 mM KCl, 1 mM MgCl2). The purified SIRT6 protein was analyzed by SDS-PAGE.
Fluor-De-Lys (FDL) assays were used for the examination of the deacetylation activities of sirtuins as described previously. For the detection of SIRT6 activity, the 50-μL reaction mixture contained 5 μM SIRT6, 2.5 mM NAD^+ (β-Nicotinamide adenine dinucleotide hydrate, Sigma, N1636), 75 μM RHKK-Ac-AMC (GL Biochem, Shanghai), compounds/DMSO, and assay buffer. The reactions were incubated at 37 °C for 2 h, added 50 μL stop solution (40 mM nicotinamide, 6 mg/mL trypsin) at 25 °C for 30 min. Fluorescence intensity was measured at an excitation wavelength of 360 nm and an emission wavelength of 460 nm. IC50 values were calculated in GraphPad Prism version 8.00.

BXPC-3 xenografts = test: BXPC-3 tumor xenograft in nude mice; format: in vivo, BALB/c nude mice; conditions: gemcitabine 10 mg/kg i.p. once every 2 days for 4 weeks
Method: Female BALB/c nude mice (14 ± 2 g, 4 weeks old) were purchase. About 2 × 10^6 of BXPC-3 cells were inoculated into nude mouse flanks. When the tumor volume reached approximately 100 mm^3, mice were randomly divided into four groups with six mice per group before treatment and then treated with vehicle, 8a (20 mg/kg), gemcitabine (10 mg/kg) and their combination every 2 days. Tumor volumes and body weight were measured every 3 days, and use the formula to calculate the tumor volume: V = (L × W × W)/2 (V, tumor volume; L, length; and W, width). Mice were sacrificed and tumor tissues were removed. Tumor tissues were fixed with paraformaldehyde (4%) and embedded with paraffin.
To further confirm whether 8a can enhance the antitumor effects of gemcitabine in vivo, the BXPC-3 PDAC xenografts were used. The mice with tumors received intraperitoneal injection of compound 8a (20 mg/kg), gemcitabine (10 mg/kg), or their combination once every 2 days for 4 weeks. Tumor volumes and body weight of mice were monitored every 3 days.

BXPC-3 cells = test: γ-H2AX DNA damage (immunofluorescence, western blot); format: cell-based; conditions: BXPC-3, 10 nM gemcitabine, 6.25 μM 8a or combination, 24 h
Method: Cells were harvested and lysed in a lysis buffer (solarbio, R0010) supplementing 1 mM PMSF and protease inhibitor (TargetMol, USA). […] Then, the membranes were detected by Tanon 5200 (Tanon, Beijing, China). […]

SIRT6 [2] = target: T1, SIRT6; set-up: endogenous in cells; host or cells: HeLa; conditions: cited from earlier work

Inhibition rate (%) (SIRT6 [1])	SMILES	further results
5.3	BrCCCCCCn1cnc2c(-c3cc(Br)c(Br)[nH]3)nccc21.O=C(O)C(F)(F)F [Compound 4a]	
4.1	Brc1cc(-c2nccc3[nH]cnc23)[nH]c1Br.O=C(O)C(F)(F)F [Compound 2a]	
6.4	O=C(O)C(F)(F)F.O=C1c2ccccc2C(=O)N1CCCCCCn1cnc2c(-c3cc(Br)c(Br)[nH]3)nccc21 [Compound 10c]	

More lines, now with the values behind:

SMILES	Inhibition rate (%) (SIRT6 [1])	further results
Nc1ccn([C@@H]2O[C@H](CO)[C@@H](O)C2(F)F)c(=O)n1 [gemcitabine]		tumor mass inhibition (BXPC-3 xenografts): 30.1%; γ-H2AX foci (BXPC-3 cells): can cause γ-H2AX foci
Brc1cc(-c2nccc3c2ncn3CCCCCCN2CCOCC2)n(CCCCCCN2CCOCC2)c1Br [Compound 11b]	23.8	
BrCCCCCCn1c(-c2nccc3c2ncn3CCCCCCBr)cc(Br)c1Br [Compound 11a]		inhibition at 25 µM (SIRT6 [1]): < 0%
Brc1cc(-c2nccc3c2ncn3CCCCCCN2CCCCC2)[nH]c1Br.O=C(O)C(F)(F)F [Compound 10d]	16.7	
O=C(Nc1ccc(O)c(C(=O)O)c1)c1cccc(NC(=O)c2ccco2)c1 [OSS_128167]		pIC50 (SIRT6 [2]): 4.05
Cn1c(-c2nccc3[nH]cnc23)cc(Br)c1Br [Compound 1c]		inhibition at 25 µM (SIRT6 [1]): 3.7%
